Assay results taken from patent US5288709A, “Erythromycin derivatives” (priority 1991, dated 1994).
In brackets after ≈: the same amount, converted by molar mass. Read-outs that look alike come from different tables or passages of the source.

What was measured:
Test in all cases: In-vitro antimicrobial activity primary screen (agar dilution MIC)
Type in all cases: cell-based
[1] = test system: Acinetobacter SP CMX 669
Protocol: (§1) The antimicrobial spectra of several of the compounds of the present invention were tested as described below.
(§2) Twelve petri dishes containing successive aqueous dilutions of the test compounds, mixed with 10 mL of sterilized Brain Heart Infusion (BHI) agar (Difco 0418-01-5), were prepared. Each plate was inoculated with 1:100 (or 1:10 for slow growing strains (primarily Micrococcus and Streptococcus) dilutions of up to 32 different microorganisms, using a Steers replicator block. The inoculated plates were incubated at 35 37° C. for 20-24 hours. In addition, a control plate, using BHI agar containing no test compound, was prepared and incubated at the beginning and the end of each test.
(§3) An additional plate containing a compound having known susceptibility patterns for the organisms being tested and belonging to the same antibiotic class as the test compounds was also prepared and incubated as a further control, as well as to provide test-to test comparability.
(§4) After incubation, each plate was read. The MIC (minimum inhibitory concentration) is defined as the lowest concentration of test compound yielding no growth, a slight haze, or sparsely isolated colonies on the inoculum spot as compared to the growth control containing no test compound.

[2] = test system: Enterobacter aerogenes ATCC 13048; settings: Klebsiella aerogenes, Enterobacter aerogenes ATCC 13048, BHI agar, 20-24 h
Protocol: as §1, §2, §3, §4

[3] = test system: Enterococcus faecium ATCC 8043
Protocol: as §1, §2, §3, §4

[4] = test system: Escherichia coli DC-2; settings: Escherichia coli DC-2, BHI agar, 20-24 h
Protocol: as §1, §2, §3, §4

[5] = test system: Escherichia coli H560; settings: Escherichia coli H560, BHI agar, 20-24 h
Protocol: as §1, §2, §3, §4

[6] = test system: Escherichia coli JUHL; settings: Escherichia coli JUHL, BHI agar, 20-24 h
Protocol: as §1, §2, §3, §4

[7] = test system: Escherichia coli SS; settings: BHI agar, 20-24 h
Protocol: as §1, §2, §3, §4

[8] = test system: Klebsiella pneumoniae ATCC 8045; settings: Klebsiella pneumoniae ATCC 8045, BHI agar, 20-24 h
Protocol: as §1, §2, §3, §4

[9] = test system: Micrococcus luteus ATCC 4698; settings: Micrococcus luteus, ATCC4698, 24 h, BHI agar, 20-24 h
Protocol: as §1, §2, §3, §4

[10] = test system: Micrococcus luteus ATCC 9341; settings: 20-24 h
Protocol: as §1, §2, §3, §4

[11] = test system: Providencia stuartii CMX 640
Protocol: as §1, §2, §3, §4

[12] = test system: Pseudomonas aeruginosa A5007
Protocol: as §1, §2, §3, §4

[13] = test system: Pseudomonas aeruginosa BMH10; settings: BHI agar, 20-24 h
Protocol: as §1, §2, §3, §4

[14] = test system: Pseudomonas aeruginosa K799/61; settings: Pseudomonas aeruginosa K799/61, BHI agar, 20-24 h
Protocol: as §1, §2, §3, §4

[15] = test system: Pseudomonas aeruginosa K799/WT
Protocol: as §1, §2, §3, §4

[16] = test system: Pseudomonas cepacia 2961; settings: BHI agar, 20-24 h
Protocol: as §1, §2, §3, §4

[17] = test system: Staphylococcus aureus 45 RAR2; settings: Staphylococcus aureus, 45RAR2, 24 h, BHI agar, 20-24 h
Protocol: as §1, §2, §3, §4

[18] = test system: Staphylococcus aureus 45; settings: BHI agar, 20-24 h
Protocol: as §1, §2, §3, §4

[19] = test system: Staphylococcus aureus A5177; settings: Staphylococcus aureus A5177, BHI agar, 20-24 h
Protocol: as §1, §2, §3, §4

[20] = test system: Staphylococcus aureus ATCC 6538P; settings: Staphylococcus aureus, ATCC6538P, 24 h, BHI agar, 20-24 h
Protocol: as §1, §2, §3, §4

[21] = test system: Staphylococcus epidermidis 3519; settings: BHI agar, 20-24 h
Protocol: as §1, §2, §3, §4

[22] = test system: Streptococcus agalactiae CMX 508; settings: 20-24 h
Protocol: as §1, §2, §3, §4

[23] = test system: Streptococcus bovis A5169; settings: Streptococcus equinus, BHI agar, 20-24 h
Protocol: as §1, §2, §3, §4

[24] = test system: Streptococcus pyrogenes 2548 INDUC; settings: BHI agar, 20-24 h
Protocol: as §1, §2, §3, §4

[25] = test system: Streptococcus pyrogenes EES61; settings: BHI agar, 20-24 h, read-out: MIC
Protocol: as §1, §2, §3, §4

[26] = test system: Staphylococcus aureus CMX 503A; settings: Staphylococcus aureus, CMX503A, 24 h, BHI agar, 20-24 h, read-out: MIC
Protocol: as §1, §2
(§5) An additional plate containing a compound having known susceptibility patterns for the organisms being tested and belonging to the same antibiotic class as the test compounds was also prepared and incubated as a further control, as well as to provide test-to test comparability. Erythromycin A was used for this purpose.
as §4

[27] = test system: Staphylococcus aureus CMX 553; settings: Staphylococcus aureus, CMX553, 24 h, BHI agar, 20-24 h, read-out: MIC
Protocol: as §1, §2, §5, §4

[28] = test system: Staphylococcus aureus CMX 686B; settings: CMX686B, BHI agar, 20-24 h, read-out: MIC
Protocol: as §1, §2, §5, §4

[29] = SPCMX669, Acinetobacter SP CMX 669, BHI agar, 20-24 h, read-out: MIC
[30] = ATCC9341, BHI agar, read-out: MIC
[31] = CMX640, Providencia stuartii CMX 640, BHI agar, 20-24 h, read-out: MIC
[32] = Pseudomonas aeruginosa A5007, BHI agar, 20-24 h, read-out: MIC
[33] = Pseudomonas aeruginosa K799/WT, BHI agar, 20-24 h, read-out: MIC
[34] = Burkholderia cepacia, read-out: MIC
[35] = Staphylococcus aureus, 45, 24 h
[36] = Staphylococcus epidermidis, 3519, 24 h
[37] = CMX508, BHI agar, read-out: MIC
[38] = Enterococcus faecium, ATCC8043, 24 h

Structure (SMILES) | MIC [1, 29] [µg/mL] | MIC ([2]; ATCC13048, read-out: MIC) [µg/mL] | MIC ([4]; DC2, read-out: MIC) [µg/mL] | MIC ([5]; read-out: MIC) [µg/mL] | MIC ([6]; read-out: MIC) [µg/mL] | MIC ([7]; Escherichia coli, 24 h) [µg/mL] | MIC ([8]; ATCC8045, read-out: MIC) [µg/mL] | MIC [9] [µg/mL] | MIC [10, 30] [µg/mL] | MIC [11, 31] [µg/mL] | MIC [12, 32] [µg/mL] | MIC ([13]; read-out: MIC) [µg/mL] | MIC [15, 33] [µg/mL] | MIC [16, 34] [µg/mL] | MIC [17] [µg/mL] | MIC [20] [µg/mL] | MIC [25] [µg/mL] | MIC [26] [µg/mL] | MIC [27] [µg/mL] | MIC [28] [µg/mL] | also measured
CC[C@H]1OC(=O)[C@H](C)[C@@H](O[C@H]2C[C@@](C)(OC)[C@H](NS(C)(=O)=O)[C@H](C)O2)[C@H](C)[C@@H](O[C@@H]2O[C@H](C)C[C@H](N(C)C)[C@H]2O)[C@](C)(O)C[C@@H](C)[C@@H]2O[C@@]1(C)C(=O)[C@H]2C [Example 11, (4"R,9S)-9-Deoxo-4",11,12-trideoxy-9,12-epoxy-4"-[(methylsulphonyl)amino]-11-oxoerythromycin A] | 50 (≈ 63 µM) | > 100 | > 100 | > 100 | > 100 | 0.78 (≈ 0.984 µM) | > 100 | 0.1 (≈ 0.126 µM) | 0.05 (≈ 0.063 µM) | > 100 | > 100 | > 100 | 100 (≈ 126 µM) | > 100 | 0.39 (≈ 0.492 µM) | 0.39 (≈ 0.492 µM) | < 0.005 | 0.39 (≈ 0.492 µM) | 0.2 (≈ 0.252 µM) | 0.39 (≈ 0.492 µM) | MIC ([3]; ATCC8043, Enterococcus faecium ATCC 8043, BHI agar, 20-24 h, read-out: MIC): 0.05 µg/mL (≈ 0.063 µM); MIC ([14]; Pseudomonas aeruginosa, K799/61, 24 h): 3.1 µg/mL (≈ 3.91 µM); MIC [18, 35]: 0.39 µg/mL (≈ 0.492 µM); MIC ([19]; Staphylococcus aureus, A5177, 24 h): 0.39 µg/mL (≈ 0.492 µM); MIC [21, 36]: 0.78 µg/mL (≈ 0.984 µM); MIC [22, 37]: 0.02 µg/mL (≈ 0.0252 µM); MIC ([23]; read-out: MIC): < 0.005 µg/mL; MIC ([24]; Streptococcus, 2548INDUC, 24 h): 0.78 µg/mL (≈ 0.984 µM)
CC[C@H]1OC(=O)[C@H](C)[C@@H](O[C@H]2C[C@@](C)(OC)[C@H](NC(C)=O)[C@H](C)O2)[C@H](C)[C@@H](O[C@@H]2O[C@H](C)C[C@H](N(C)C)[C@H]2O)[C@](C)(O)C[C@@H](C)[C@@H]2O[C@@]1(C)C(=O)[C@H]2C [Example 10, (4"R,9S) 4"-Acetylamino-9-deoxo-4",11,12-trideoxy-9,12-epoxy-11-oxoerythromycin A] | 50 (≈ 66.1 µM) | > 100 | > 100 | 100 (≈ 132 µM) | > 100 |  | > 100 | 0.2 (≈ 0.264 µM) | 0.05 (≈ 0.0661 µM) | > 100 | > 100 | > 100 | > 100 | > 100 | 0.39 (≈ 0.515 µM) | 0.39 (≈ 0.515 µM) | 0.02 (≈ 0.0264 µM) | 0.39 (≈ 0.515 µM) | 0.39 (≈ 0.515 µM) | 0.39 (≈ 0.515 µM) | MIC [3, 38]: 0.2 µg/mL (≈ 0.264 µM); MIC ([7]; read-out: MIC): 0.39 µg/mL (≈ 0.515 µM); MIC ([14]; read-out: MIC): 1.56 µg/mL (≈ 2.06 µM); MIC ([18]; read-out: MIC): 0.39 µg/mL (≈ 0.515 µM); MIC ([19]; read-out: MIC): 0.39 µg/mL (≈ 0.515 µM); MIC [21, 36]: 0.39 µg/mL (≈ 0.515 µM); MIC ([22]; Streptococcus agalactiae, CMX508, 24 h, BHI agar): 0.1 µg/mL (≈ 0.132 µM); MIC ([23]; A5169, 24 h): 0.2 µg/mL (≈ 0.264 µM); MIC ([24]; read-out: MIC): 0.78 µg/mL (≈ 1.03 µM)
CC[C@H]1OC(=O)[C@H](C)[C@@H](O[C@H]2C[C@@](C)(OC)[C@@H](OC(N)=O)[C@H](C)O2)[C@H](C)[C@@H](O[C@@H]2O[C@H](C)C[C@H](N(C)C)[C@H]2O)[C@](C)(O)C[C@@H](C)[C@@H]2O[C@@]1(C)[C@@H](O)[C@H]2C [Example 17, (9S,11S)-4"-O-Aminocarbonyl-9-deoxo-12-deoxy-9,12-epoxyerythromycin A] |  |  |  |  |  | 0.2 (≈ 0.263 µM) |  | 0.2 (≈ 0.263 µM) |  |  |  |  |  |  | 0.39 (≈ 0.513 µM) | 0.2 (≈ 0.263 µM) | 0.02 (≈ 0.0263 µM) | 0.39 (≈ 0.513 µM) | 0.39 (≈ 0.513 µM) | 0.39 (≈ 0.513 µM) | MIC ([1]; Acinetobacter, SPCMX669, 24 h): 50 µg/mL (≈ 65.7 µM); MIC ([2]; ATCC13048, 24 h): 50 µg/mL (≈ 65.7 µM); MIC [3, 38]: 0.2 µg/mL (≈ 0.263 µM); MIC ([4]; Escherichia coli, DC2, 24 h): 50 µg/mL (≈ 65.7 µM); MIC ([5]; Escherichia coli, H560, 24 h): 25 µg/mL (≈ 32.9 µM); MIC ([6]; Escherichia coli, 24 h): 50 µg/mL (≈ 65.7 µM); MIC ([8]; Klebsiella pneumoniae, ATCC8045, 24 h): 25 µg/mL (≈ 32.9 µM); MIC ([10]; Micrococcus luteus, ATCC9341, 24 h, BHI agar): 0.05 µg/mL (≈ 0.0657 µM); MIC ([11]; Providencia stuartii, CMX640, 24 h): > 100 µg/mL; MIC ([12]; Pseudomonas aeruginosa, A5007, 24 h): > 100 µg/mL; MIC ([13]; Pseudomonas aeruginosa, BMH10, 24 h): 25 µg/mL (≈ 32.9 µM); MIC ([14]; read-out: MIC): 0.78 µg/mL (≈ 1.03 µM); MIC ([15]; Pseudomonas aeruginosa, K799/WT, 24 h): 25 µg/mL (≈ 32.9 µM); MIC ([16]; Burkholderia cepacia, 2961, 24 h): > 100 µg/mL; MIC [18, 35]: 0.78 µg/mL (≈ 1.03 µM); MIC ([19]; read-out: MIC): 12.5 µg/mL (≈ 16.4 µM); MIC ([21]; read-out: MIC): 0.78 µg/mL (≈ 1.03 µM); MIC [22, 37]: 0.02 µg/mL (≈ 0.0263 µM); MIC ([23]; A5169, 24 h): 0.05 µg/mL (≈ 0.0657 µM); MIC ([24]; read-out: MIC): 1.56 µg/mL (≈ 2.05 µM)
